These results are taken from patent US20250114371A1, “BIOMARKER AND PATIENT SELECTION IN TREATMENT FOR MYELOFIBROSIS” (GlaxoSmithKline LLC, priority 2021, published 2025).

Data set [1] relates to patients with myelofibrosis naïve to treatment with a JAK inhibitor. The following applies: Mesa et al., cited from earlier work.
Data set [2] concerns myelofibrosis patients with low platelet counts. Description: Re-analysis of the data from the SIMPLIFY-1 and SIMPLIFY-2 trials by platelet count. Format: in vivo, human. The following applies: patients whose platelet counts are 150×109 per liter or below.
Data set [3] has as its system transfusion-dependent myelofibrosis patients. Conditions: Oh et al. 2020, cited from earlier work.
Data set [4] has as its system patients with myelofibrosis naïve to treatment with a JAK inhibitor. Description: SIMPLIFY-1 Phase 3 trial, MMB versus RUX, 24 weeks randomized treatment. Format: in vivo, human. The following applies: for Response Ratio (MMB/Control): TI response at week 24, MMB/RUX; for 3-year survival: patients randomized to MMB; for Week 24 TI response rate: patients with baseline anemia; for mean ferritin change at W24 from baseline: serum ferritin, irrespective of baseline ferritin. The protocol: In the SIMPLIFY-1 trial (NCT01969838; GS-US-352-0101), the efficacy and safety of MMB versus ruxolitinib (RUX) was studied in patients with myelofibrosis who were naïve to treatment with a JAK inhibitor. Patients (N=432) with high risk or intermediate-2 risk or symptomatic intermediate-1 risk myelofibrosis received 24 weeks of treatment with 200 mg MMB once daily or 20 mg RUX twice a day (or per label), after which all patients could receive open-label momelotinib. […] The primary endpoint was a reduction by at least 35% in the spleen volume at 24 weeks compared with baseline.
(§1) The relationship between W24 response and overall survival (OS) was explored in patients randomized to MMB in the SIMPLFY-1 (S1) and SIMPLIFY-2 (S2) trials.
(§2) Responders were defined as follows: • W24 TI response (TI-R): no RBC transfusion within ?12 weeks immediately prior to W24, with Hgb≥8 g/dL • W24 spleen response: ≥35% spleen volume reduction vs baseline (BL) • W24 symptom response: ≥50% reduction in MFSAF total symptom score vs BL
(§3) Survival from baseline was estimated using K-M analysis with descriptive log-rank tests for comparison applied (all p values are descriptive). Hazard ratios were computed using proportional hazard regression. To adjust for the time to response bias, overall survival from W24 was also compared. As patients randomized to the control arm in both studies and crossed over to open label MMB after 24 weeks of randomized treatment, a valid comparison of overall survival with patients randomized to RUX or BAT/RUX vs MMB was not possible, therefore, only the MMB arm was analyzed.
(§4) Based on the findings from the Phase 2 translational biology study we retrospectively analyzed the relationship between serum ferritin, hepcidin and C-reactive protein (CRP) and the W24 TI response rates for patients randomized to MMB and RUX in the S1 study using univariate analyses and multiple logistic regression models. These findings were then independently confirmed in the previously RUX treated patients in S2.

The subject of data set [5] is anemic or thrombocytopenic subjects with myelofibrosis previously treated with ruxolitinib. Conditions: Harrison et al., cited from earlier work.
Data set [6] shares this test system. The data set is described as follows: SIMPLIFY-2 Phase 3 trial, MMB versus best available therapy (BAT). Format: in vivo, human. The following applies: for Response Ratio (MMB/Control): TI response at week 24, MMB/BAT.
Source text: In the SIMPLIFY-2 trial (NCT02101268; GS-US-352-1214), the efficacy and safety of MMB versus best available treatment (BAT) was studied in anemic or thrombocytopenic subjects with myelofibrosis who were previously treated with ruxolitinib (RUX). There was no lower limit for the required baseline platelet count. […] The primary endpoint was a reduction by at least 35% in the spleen volume at 24 weeks compared with baseline.
as §1, §2, §3, §4

The structures appear in SMILES notation. Read-outs that look alike come from different tables or passages of the source.

Consider `Cl.N#CCNC(=O)c1ccc(-c2ccnc(Nc3ccc(N4CCOCC4)cc3)n2)cc1` [MMB, N-(cyanomethyl)-4-(2-(4-morpholinophenylamino)pyrimidin-4-yl)benzamide], for which, in data set [1] (compared to RUX), the transfusion dependence rate result is “decreased”. Also, the transfusion independence rate result in data set [1] (compared to RUX) is listed as “increased”. Besides, the transfusion rate result in data set [1] (compared to RUX) is listed as “reduced”. The “reduction of spleen size (primary endpoint)” value in data set [1] (vs RUX, JAKi-naïve patients, 24 weeks) is listed as “noninferior to RUX”; in data set [5] (vs BAT) it was “not superior to BAT”. In addition, the “total symptom score (TSS) response (secondary endpoint)” value in data set [1] (vs RUX) was “non-inferiority was not demonstrated”. In data set [2], the “reducing spleen size (SSR), improving total symptom scores (TSS), improving transfusion independence rates” value was “effective”. Besides, the thrombocytopenia result in data set [2] is recorded as “without momelotinib administration causing thrombocytopenia”. For the same compound, the hepcidin result is “acutely and chronically suppresses elevated levels of hepcidin” in data set [3]; “inhibited” in data set [3] (listed as momelotinib). Besides, the transfusion dependency entry in data set [3] (transfusion-dependent myelofibrosis patients) is reported as “reversed or reduced”. The “overall survival hazard ratio (HR)” value was 0.59 in data set [4] (MMB W24 spleen responders vs nonresponders); 0.66 in data set [4] (MMB W24 symptom (TSS) responders vs nonresponders); 0.32 in data set [4] (MMB patients with anemia at baseline, W24 TI-R vs nonresponders); 0.30 in data set [4] (all patients randomized to MMB, W24 TI responders vs TI nonresponders); 0.67 in data set [6] (MMB symptom (TSS) responders vs TSS nonresponders); 0.57 in data set [6] (all patients randomized to MMB, W24 TI responders vs TI non-responders). In data set [4] (MMB vs RUX, irrespective of baseline anemia, platelet count or transfusion status (FIGS. 1-3)), the “W24 TI-R rate” value was “higher in patients randomized to MMB vs RUX”. Further, the “Response Ratio (MMB/Control)” value is 1.0843 in data set [4] (baseline ferritin <90 ng/mL), 1.7538 in data set [4] (baseline ferritin ≥90 ng/mL), 1.1429 in data set [6] (baseline ferritin <90 ng/mL) and 3.7949 in data set [6] (baseline ferritin ≥90 ng/mL). In data set [4] (compared to RUX (FIGS. 12 and 13)), the “stabilizing ferritin over time” value is given as “more effective at stabilizing ferritin over time when compared to RUX”. Also, the “W24 TI-R by baseline ferritin cohort” value in data set [4] (each ferritin cohort (FIG. 14)) was “superior to RUX for each ferritin cohort”; in data set [4] (ferritin levels exceed 650 ng/mL (FIG. 14)) it was “nominally better than RUX”. Besides, the 3-year survival is recorded as 50% in data set [4] (TI nonresponders at W24) and 80% in data set [4] (TI responders at W24). Also, the “Week 24 TI response rate” value in data set [4] is 45%. In addition, the “mean ferritin change at W24 from baseline” value in data set [4] is “+13.8 ng/mL”. Also, the “total symptom score (TSS) response” value in data set [5] (compared to BAT group) is reported as “greater”. Further, in data set [5] (compared to BAT group), the transfusion dependence result is listed as “lower”. For the same compound, the transfusion independence entry in data set [5] (compared to BAT group) was “higher”. Besides, the transfusions entry in data set [5] (compared to BAT group) is listed as “fewer”.
Take `N#CC[C@H](C1CCCC1)n1cc(-c2ncnc3[nH]ccc23)cn1` [RUX, Ruxolitinib, reference compound]: in data set [4], the “Week 24 TI response rate” value amounted to 26% and the “mean ferritin change at W24 from baseline” value is given as “+226.1 ng/mL”.
